{
  "source": "paper PMC12677653",
  "about": "“Inhibition of Tumor Lipogenesis and Growth by Peptide‐Based Targeting of SREBP Activation” (Advanced Science, 2025)",
  "key": {"[1]": {"system": "Insig1 pS207/Insig2 pS151, SREBP1, Ki67", "experiment": "IHC analysis of mouse tumors derived from Huh7 cells", "format": "in vivo, BALB/c athymic nude mice", "conditions": "peptide given as LNP@Insig1/2 loop 1 peptide 10 mg/kg iv, lenvatinib mesylate 2 mg/kg oral", "experimental": "Representative micrographs are shown (scale bar: 20 µm). b,c) Cryosections of mouse tumor tissues were prepared for histological analysis. (b) Lipid accumulation was assessed by Oil Red O staining. Representative micrographs are shown (scale bar: 20 µm). (c) Apoptotic cells were detected by TUNEL assay. Representative micrographs are shown (scale bar: 20 µm). d,e) Quantitative analysis of (d) apoptotic areas (TUNEL‐positive regions) and (e) lipid droplet counts (Oil Red O‐positive particles) was performed. Data represent the mean ± SD (n = 4). Statistical significance was determined by one‐way analysis of variance (ANOVA). ** p < 0.01, **** p < 0.0001, ns, no significance.\nAs described previously,^[ [39] ^] IHC staining was performed using the Vectastain ABC kit (Vector Laboratories) according to the manufacturer's instructions. Sections of paraffin‐embedded xenograft tumors were stained with antibodies against Ki67, SREBP1, Insig1 pS207/Insig2 pS151, and nonspecific IgG was used as a negative control. Paraffin‐embedded human liver tumor sections were stained with antibodies against Ki67, SREBP1, Insig1 pS207/Insig2 pS151, with nonspecific IgG as a negative control. The tissue sections were quantitatively scored according to the percentage of positive cells and staining intensity. […] The intensity of staining was rated on a scale of 0 to 3: 0, negative; 1, weak; 2, moderate; and 3, strong. The study then combined the proportion and intensity scores to obtain a total score (range, 0–8)."}, "[2]": {"system": "Insig1 S207/Insig2 S151 phosphorylation", "experiment": "Immunoblot of Insig1 S207/Insig2 S151 phosphorylation, Huh7", "format": "cell-based, human", "conditions": "Huh7 cells, peptide 7.5 or 15 µM 1 h before IGF1 100 ng/mL", "experimental": "Figure 1 The Insig1/2 loop 1 peptide binds to S90‐phosphorylated PCK1 and blocks PCK1‐mediated SREBP activation and tumor cell proliferation. Immunoblotting analyses were performed using the indicated antibodies; representative results from three independent experiments are shown (IP, immunoprecipitation; WB, western blot). a) Huh7 cells expressing various Insig1 (top) or Insig2 (bottom) truncation mutants were treated with or without IGF1 (100 ng mL^−1) for 1 h. b,c) Biolayer interferometry assays (Sartorius Octet) were employed to measure the binding affinity of Insig1/2 loop 1 peptide to GST‐PCK1 or GST‐PCK1 pS90 proteins. […] Statistical significance was determined by one‐way analysis of variance (ANOVA). g) Following pretreatment with Insig1/2 loop 1 peptide (15 µM) and IGF1 stimulation (100 ng mL^−1, 8 h), Huh7 cells were subjected to immunofluorescence analysis (scale bar: 10 µm). h) Quantitative PCR analysis of SREBP1 target gene GPAM in Huh7 cells pretreated with Insig1/2 loop 1 peptide (15 µM) and stimulated with IGF1 (100 ng mL^−1) for 10 h. […] Statistical significance was determined by one‐way analysis of variance (ANOVA). i) Quantitative PCR analysis of SREBP1 target gene FASN in Huh7 cells pretreated with Insig1/2 loop 1 peptide (15 µM) and stimulated with IGF1 (100 ng mL^−1) for 10 h. […]"}},
  "data": [
    {"sequence": "RKKRRQRRRLYPCIDSHLGEPHKFKRE [Insig1/2 loop 1 peptide]", "values": [
      {"measurement": "Insig1 S207/Insig2 S151 phosphorylation in tumors", "setting": "[1]", "value": "reduced"},
      {"measurement": "Ki67 expression in tumors", "setting": "[1]", "value": "reduced"},
      {"measurement": "SREBP1 expression and nuclear accumulation in tumors", "setting": "[1]", "value": "reduced"},
      {"measurement": "Insig1 S207/Insig2 S151 phosphorylation", "setting": "[2]", "value": "markedly inhibited"}
    ]}
  ]
}
